From the NIST ThermoML archive (doi:10.1016/j.fluid.2015.02.014)
Numbers after ± are expanded uncertainties.

Conditions: Liquid, Closed cell (Static) method

SMILES	vapor or sublimation pressure (283.15 K) [kPa]	vapor or sublimation pressure (293.15 K) [kPa]	vapor or sublimation pressure (303.15 K) [kPa]	vapor or sublimation pressure (313.15 K) [kPa]	vapor or sublimation pressure (323.15 K) [kPa]
CCF [fluoroethane]	601.2 ± 1.3	805.6 ± 1.5	1058.8 ± 1.8	1365.8 ± 2.2	1735.2 ± 2.7
C=C(F)C(F)(F)F [2,3,3,3-tetrafluoro-1-propene]	437.9 ± 1.2	591.5 ± 1.3	782.9 ± 1.5	1018.2 ± 1.8	1302.4 ± 2.1
